Reference: patent US20090203709A1, “Pharmaceutical Dosage Form For Oral Administration Of Tyrosine Kinase Inhibitor” (ABBOTT LABORATORIES, priority 2008, published 2009)
Marks after values point to notes of the source that are not given here.

Columns and labels:
[1] = Safety in study M04-710 (adverse events, DLTs); type: in vivo, human
Method: Study M04-710 and M05-756 are ongoing, open-label, multiple-dose escalation trials with ABT-869 administered daily for 21 consecutive days, with dose escalation scheduled in cohorts of 3 subjects. […] In both studies dosing was initiated at 10 mg QD, with subjects self-administering ABT-869 orally (admixed with approximately 60 mL of Ensure Plus or an approved alternative) at bedtime. Food was not allowed 2 h before or after dosing. As a portion of trial M04-710, the bioavailability of ABT-869 as a single dose in a 10 mg tablet formulation was determined relative to the solution formulation.
(§1) The following safety evaluations were performed during the studies: adverse event monitoring, vital signs, ECGs, physical examination and laboratory tests assessments.

[2] = Safety in study M05-756 (AML/MDS; adverse events, DLTs)
Method: Food was not allowed 2 h before or after dosing.
as §1

[3] = all cycles, N = 27, highest grade per subject
[4] = all cycles, N = 27, includes Skin Reaction, Skin Lesion, and Rash
[5] = all cycles, N = 10, highest grade per subject

Structure (SMILES): Cc1ccc(F)c(NC(=O)Nc2ccc(-c3cccc4[nH]nc(N)c34)cc2)c1 [ABT-869, N-[4-(3-amino-1H-indazol-4-yl)phenyl]-N′-(2-fluoro-5-methylphenyl)urea]
- DLT: Grade 3 hypertension ([1]; 0.10 mg/kg): 1 patient
- DLT: Grade 3 hypertension ([1]; 0.25 mg/kg): 1 patient
- DLT: Grade 3 proteinuria ([1]; 0.25 mg/kg): 1 patient
- DLT: Grade 3 proteinuria and Grade 3 hypertension ([1]; 0.30 mg/kg): 2 patients
- DLT: Grade 3 fatigue ([1]; 10 mg/body): 1 patient
- Anorexia, Overall ([1]; all cycles, N = 27): 7 (25.9) n (%)
- Arthralgia, Overall ([1]; all cycles, N = 27): 6 (22.2) n (%)
- Constipation, Overall ([1]; all cycles, N = 27): 6 (22.2) n (%)
- Diarrhoea, Overall ([1]; all cycles, N = 27): 7 (25.9) n (%)
- Fatigue, Overall ([1]; all cycles, N = 27): 22 (81.5) n (%)
- Hypertension, Overall ([1]; all cycles, N = 27): 12 (44.4) n (%)
- Myalgia, Overall ([1]; all cycles, N = 27): 15 (55.6) n (%)
- Nausea, Overall ([1]; all cycles, N = 27): 5 (18.5) n (%)
- Oral Pain, Overall ([1]; all cycles, N = 27): 11 (40.7) n (%)
- Proteinuria, Overall ([1]; all cycles, N = 27): 6 (22.2) n (%)
- Vomiting, Overall ([1]; all cycles, N = 27): 5 (18.5) n (%)
- Anorexia, Grade 1 [1, 3]: 6 n
- Anorexia, Grade 2 [1, 3]: 1 n
- Anorexia, Grade 3/4 [1, 3]: 0 n
- Arthralgia, Grade 1 [1, 3]: 5 n
- Arthralgia, Grade 2 [1, 3]: 1 n
- Arthralgia, Grade 3/4 [1, 3]: 0 n
- Constipation, Grade 1 [1, 3]: 0 n
- Constipation, Grade 2 [1, 3]: 6 n
- Constipation, Grade 3/4 [1, 3]: 0 n
- Diarrhoea, Grade 1 [1, 3]: 6 n
- Diarrhoea, Grade 2 [1, 3]: 1 n
- Diarrhoea, Grade 3/4 [1, 3]: 0 n
- Fatigue, Grade 1 [1, 3]: 14 n
- Fatigue, Grade 2 [1, 3]: 4 n
- Hypertension, Grade 1 [1, 3]: 0 n
- Hypertension, Grade 2 [1, 3]: 8 n
- Hypertension, Grade 3/4 [1, 3]: 4 n
- Myalgia, Grade 1 [1, 3]: 9 n
- Myalgia, Grade 2 [1, 3]: 6 n
- Myalgia, Grade 3/4 [1, 3]: 0 n
- Nausea, Grade 1 [1, 3]: 3 n
- Nausea, Grade 2 [1, 3]: 2 n
- Nausea, Grade 3/4 [1, 3]: 0 n
- Oral Pain, Grade 1 [1, 3]: 9 n
- Oral Pain, Grade 2 [1, 3]: 2 n
- Oral Pain, Grade 3/4 [1, 3]: 0 n
- Proteinuria, Grade 1 [1, 3]: 0 n
- Proteinuria, Grade 2 [1, 3]: 2 n
- Proteinuria, Grade 3/4 [1, 3]: 4 n
- Vomiting, Grade 1 [1, 3]: 4 n
- Vomiting, Grade 2 [1, 3]: 1 n
- Vomiting, Grade 3/4 [1, 3]: 0 n
- Skin Related Event, Grade 1 [1, 4]: 5 n
- Skin Related Event, Grade 2 [1, 4]: 9 n
- Skin Related Event, Grade 3/4 [1, 4]: 1 n
- Skin Related Event, Overall [1, 4]: 15 (55.6) n (%)
- Fatigue, Grade 3/4 ([1]; all cycles, N = 27, occurred in cycle 3 or later): 4** n
- dose-limiting toxicities ([1]; study M04-710): hypertension, proteinuria and fatigue are dose-limiting
- reversibility of toxicities ([1]; study M04-710): treatable, or reversible with ABT-869 interruption
- Dose limiting fatigue ([2]; 20 mg/body cohort): 3 patients
- Alopecia, Overall ([2]; all cycles, N = 10): 2 (20.0) n (%)
- Anorexia, Overall ([2]; all cycles, N = 10): 2 (20.0) n (%)
- Asthenia, Overall ([2]; all cycles, N = 10): 3 (30.0) n (%)
- Constipation, Overall ([2]; all cycles, N = 10): 2 (20.0) n (%)
- Cough, Overall ([2]; all cycles, N = 10): 3 (30.0) n (%)
- Diarrhoea, Overall ([2]; all cycles, N = 10): 4 (40.0) n (%)
- Fatigue, Overall ([2]; all cycles, N = 10): 2 (20.0) n (%)
- Febrile Neutropenia, Overall ([2]; all cycles, N = 10): 3 (30.0) n (%)
- Haematuria, Overall ([2]; all cycles, N = 10): 2 (20.0) n (%)
- Hypocalcaemia, Overall ([2]; all cycles, N = 10): 2 (20.0) n (%)
- Hypokalaemia, Overall ([2]; all cycles, N = 10): 2 (20.0) n (%)
- Myalgia, Overall ([2]; all cycles, N = 10): 2 (20.0) n (%)
- Nausea, Overall ([2]; all cycles, N = 10): 2 (20.0) n (%)
- Palmar-plantar erythrodysaesthesia syndrome, Overall ([2]; all cycles, N = 10): 2 (20.0) n (%)
- Pyrexia, Overall ([2]; all cycles, N = 10): 3 (30.0) n (%)
- Alopecia, Grade 1 [2, 5]: 0 n
- Alopecia, Grade 2 [2, 5]: 2 n
- Alopecia, Grade 3/4 [2, 5]: 0 n
- Anorexia, Grade 1 [2, 5]: 2 n
- Anorexia, Grade 2 [2, 5]: 0 n
- Anorexia, Grade 3/4 [2, 5]: 0 n
- Asthenia, Grade 1 [2, 5]: 1 n
- Asthenia, Grade 2 [2, 5]: 0 n
- Asthenia, Grade 3/4 [2, 5]: 2 n
- Constipation, Grade 1 [2, 5]: 2 n
- Constipation, Grade 2 [2, 5]: 0 n
- Constipation, Grade 3/4 [2, 5]: 0 n
- Cough, Grade 1 [2, 5]: 3 n
- Cough, Grade 2 [2, 5]: 0 n
- Cough, Grade 3/4 [2, 5]: 0 n
- Diarrhoea, Grade 1 [2, 5]: 2 n
- Diarrhoea, Grade 2 [2, 5]: 1 n
- Diarrhoea, Grade 3/4 [2, 5]: 1 n
- Fatigue, Grade 1 [2, 5]: 1 n
- Fatigue, Grade 2 [2, 5]: 1 n
- Fatigue, Grade 3/4 [2, 5]: 0 n
- Febrile Neutropenia, Grade 1 [2, 5]: 0 n
- Febrile Neutropenia, Grade 2 [2, 5]: 0 n
- Febrile Neutropenia, Grade 3/4 [2, 5]: 3 n
- Haematuria, Grade 1 [2, 5]: 1 n
- Haematuria, Grade 2 [2, 5]: 1 n
- Haematuria, Grade 3/4 [2, 5]: 0 n
- Hypocalcaemia, Grade 1 [2, 5]: 2 n
- Hypocalcaemia, Grade 2 [2, 5]: 0 n
- Hypocalcaemia, Grade 3/4 [2, 5]: 0 n
- Hypokalaemia, Grade 1 [2, 5]: 2 n
- Hypokalaemia, Grade 2 [2, 5]: 0 n
- Hypokalaemia, Grade 3/4 [2, 5]: 0 n
- Myalgia, Grade 1 [2, 5]: 1 n
- Myalgia, Grade 2 [2, 5]: 0 n
- Myalgia, Grade 3/4 [2, 5]: 1 n
- Nausea, Grade 1 [2, 5]: 2 n
- Nausea, Grade 2 [2, 5]: 0 n
- Nausea, Grade 3/4 [2, 5]: 0 n
- Palmar-plantar erythrodysaesthesia syndrome, Grade 1 [2, 5]: 2 n
- Palmar-plantar erythrodysaesthesia syndrome, Grade 2 [2, 5]: 0 n
- Palmar-plantar erythrodysaesthesia syndrome, Grade 3/4 [2, 5]: 0 n
- Pyrexia, Grade 1 [2, 5]: 1 n
- Pyrexia, Grade 2 [2, 5]: 1 n
- Pyrexia, Grade 3/4 [2, 5]: 1 n
- dose-limiting toxicities ([2]; study M05-756): fatigue is dose-limiting
- reversibility of toxicities ([2]; study M05-756): treatable, or reversible with ABT-869 interruption
